Read-outs that look alike come from different tables or passages of the source.
Columns and labels:
[1] = tested on: B. subtilis ATCC6633; experiment: Sensitivity test (agar dilution); type: cell-based, Bacillus subtilis; conditions: Bacillus subtilis, B. subtilis ATCC6633
Procedure, shortened: (§1)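 Under the Japan Chemotherapeutic Society protocol, MIC was recorded as the lowest agar concentration, in twofold dilutions in MHA, preventing growth of about 10^6 CFU/ml inocula. FIC indices were derived for drug pairs.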

[2] = tested on: E. coli ML1410 RP4; experiment: microbe, parasite or virus in culture; type: cell-based, Escherichia coli; conditions: Escherichia coli, E. coli ML1410 RP4
Procedure, shortened: as §1

[3] = tested on: Str. pyogenes Cook; experiment: Sensitivity test (agar dilution); type: cell-based, Streptococcus pyogenes; conditions: Streptococcus pyogenes, Str. pyogenes Cook
Procedure, shortened: as §1

[4] = tested on: S. maltophilia IID1275; experiment: Sensitivity test (agar dilution); type: cell-based, Stenotrophomonas maltophilia; conditions: Stenotrophomonas maltophilia, S. maltophilia IID1275
Procedure, shortened: as §1

[5] = tested on: P. mirabiris GN2425; experiment: Sensitivity test (agar dilution); type: cell-based, Proteus mirabilis; conditions: Proteus mirabilis, P. mirabiris GN2425
Procedure, shortened: as §1

[6] = tested on: K. pneumoniae ATCC10031; experiment: Sensitivity test (agar dilution); type: cell-based, Klebsiella pneumoniae; conditions: Klebsiella pneumoniae, K. pneumoniae ATCC10031
Procedure, shortened: as §1

[7] = tested on: M. catarrhalis ATCC25238; experiment: Sensitivity test (agar dilution); type: cell-based, Moraxella catarrhalis; conditions: Moraxella catarrhalis, M. catarrhalis ATCC25238
Procedure, shortened: as §1

[8] = tested on: M. catarrhalis ATCC8176; experiment: Sensitivity test (agar dilution); type: cell-based, Moraxella catarrhalis; conditions: Moraxella catarrhalis, M. catarrhalis ATCC8176
Procedure, shortened: as §1

[9] = tested on: E. aerogenes ATCC13048; experiment: Sensitivity test (agar dilution); type: cell-based, Enterobacter aerogenes; conditions: Klebsiella aerogenes, E. aerogenes ATCC13048
Procedure, shortened: as §1

[10] = tested on: P. aeruginosa TL-2666; experiment: Sensitivity test (agar dilution); type: cell-based, Pseudomonas aeruginosa; conditions: Pseudomonas aeruginosa, P. aeruginosa TL-2666
Procedure, shortened: as §1

[11] = tested on: P. aeruginosa IFO3451; experiment: Sensitivity test (agar dilution); type: cell-based, Pseudomonas aeruginosa; conditions: Pseudomonas aeruginosa, P. aeruginosa IFO3451
Procedure, shortened: as §1

[12] = tested on: P. aeruginosa TL-2667; experiment: Sensitivity test (agar dilution); type: cell-based, Pseudomonas aeruginosa; conditions: Pseudomonas aeruginosa, P. aeruginosa TL-2667
Procedure, shortened: as §1

[13] = tested on: E. faecium ATCC19434; experiment: Sensitivity test (agar dilution); type: cell-based, Enterococcus faecium; conditions: Enterococcus faecium, E. faecium ATCC19434
Procedure, shortened: as §1

[14] = ATCC6633, drug alone, read-out: MIC alone
[15] = ML1410RP4, read-out: MIC alone, drug alone
[16] = drug alone, read-out: MIC alone
[17] = IID1275, drug alone, read-out: MIC alone
[18] = ATCC10031, drug alone, read-out: MIC alone
[19] = ATCC25238, drug alone, read-out: MIC alone
[20] = ATCC8176, drug alone, read-out: MIC alone
[21] = ATCC13048, drug alone, read-out: MIC alone
[22] = TL2666, drug alone, read-out: MIC alone
[23] = IFO3451, drug alone, read-out: MIC alone
[24] = TL2667, drug alone, read-out: MIC alone
[25] = ATCC19434, drug alone, read-out: MIC alone

SMILES: CCN1CCN(C(=O)N[C@@H](C(=O)N[C@@H]2C(=O)N3[C@@H]2SC(C)(C)[C@@H]3C(=O)O)c2ccccc2)C(=O)C1=O [PIPC, piperacillin]
- MIC ([1]; ATCC6633, Concomitant (PIPC:SM = 1:1), read-out: MIC concomitant): ≤ 0.002 µg/mL
- MIC [1, 14]: 0.125 µg/mL
- MIC [2, 15]: > 32 µg/mL
- MIC ([2]; ML1410RP4, read-out: MIC concomitant, Concomitant (PIPC:SM = 1:1)): 0.5 µg/mL
- MIC ([3]; Concomitant (PIPC:SM = 1:1), read-out: MIC concomitant): ≤ 0.002 µg/mL
- MIC [3, 16]: 0.031 µg/mL
- MIC ([4]; IID1275, Concomitant (PIPC:SM = 1:1), read-out: MIC concomitant): > 32 µg/mL
- MIC [4, 17]: > 32 µg/mL
- MIC ([5]; GN2425, read-out: MIC alone, drug alone): 0.25 µg/mL
- MIC ([5]; GN2425, read-out: MIC concomitant, Concomitant (PIPC:SM = 1:1)): 0.063 µg/mL
- MIC ([6]; ATCC10031, Concomitant (PIPC:SM = 1:1), read-out: MIC concomitant): 0.016 µg/mL
- MIC [6, 18]: 0.25 µg/mL
- MIC ([7]; ATCC25238, Concomitant (PIPC:SM = 1:1), read-out: MIC concomitant): ≤ 0.002 µg/mL
- MIC [7, 19]: 0.008 µg/mL
- MIC ([8]; ATCC8176, Concomitant (PIPC:SM = 1:1), read-out: MIC concomitant): ≤ 0.002 µg/mL
- MIC [8, 20]: 0.016 µg/mL
- MIC ([9]; ATCC13048, Concomitant (PIPC:SM = 1:1), read-out: MIC concomitant): 8 µg/mL
- MIC [9, 21]: 4 µg/mL
- MIC ([10]; TL2666, Concomitant (PIPC:SM = 1:1), read-out: MIC concomitant): 16 µg/mL
- MIC [10, 22]: 1 µg/mL
- MIC ([11]; IFO3451, Concomitant (PIPC:SM = 1:1), read-out: MIC concomitant): 8 µg/mL
- MIC [11, 23]: 4 µg/mL
- MIC ([12]; TL2667, Concomitant (PIPC:SM = 1:1), read-out: MIC concomitant): 16 µg/mL
- MIC [12, 24]: 2 µg/mL
- MIC ([13]; ATCC19434, Concomitant (PIPC:SM = 1:1), read-out: MIC concomitant): 0.125 µg/mL
- MIC [13, 25]: 8 µg/mL

SMILES: CC(=N)N1CC[C@H](SC2=C(C(=O)O)N3C(=O)[C@H]([C@@H](C)O)[C@H]3C2)C1 [PAPM, panipenem]
- MIC ([1]; ATCC6633, Concomitant (PAPM:SM = 1:1), read-out: MIC concomitant): ≤ 0.002 µg/mL
- MIC [1, 14]: 0.016 µg/mL
- MIC [2, 15]: 0.5 µg/mL
- MIC ([2]; ML1410RP4, read-out: MIC concomitant, Concomitant (PAPM:SM = 1:1)): 0.125 µg/mL
- MIC ([3]; Concomitant (PAPM:SM = 1:1), read-out: MIC concomitant): ≤ 0.002 µg/mL
- MIC [3, 16]: 0.008 µg/mL
- MIC ([4]; IID1275, Concomitant (PAPM:SM = 1:1), read-out: MIC concomitant): > 32 µg/mL
- MIC [4, 17]: > 32 µg/mL
- MIC ([5]; GN2425, Concomitant (PAPM:SM = 1:1), read-out: MIC concomitant): 0.125 µg/mL
- MIC ([5]; GN2425, drug alone, read-out: MIC alone): 1 µg/mL
- MIC ([6]; ATCC10031, Concomitant (PAPM:SM = 1:1), read-out: MIC concomitant): 0.016 µg/mL
- MIC [6, 18]: 0.125 µg/mL
- MIC ([7]; ATCC25238, Concomitant (PAPM:SM = 1:1), read-out: MIC concomitant): ≤ 0.002 µg/mL
- MIC [7, 19]: 0.008 µg/mL
- MIC ([8]; ATCC8176, Concomitant (PAPM:SM = 1:1), read-out: MIC concomitant): ≤ 0.002 µg/mL
- MIC [8, 20]: 0.008 µg/mL
- MIC ([9]; ATCC13048, Concomitant (PAPM:SM = 1:1), read-out: MIC concomitant): 0.25 µg/mL
- MIC [9, 21]: 0.5 µg/mL
- MIC ([10]; TL2666, Concomitant (PAPM:SM = 1:1), read-out: MIC concomitant): 8 µg/mL
- MIC [10, 22]: 8 µg/mL
- MIC ([11]; IFO3451, Concomitant (PAPM:SM = 1:1), read-out: MIC concomitant): 2 µg/mL
- MIC [11, 23]: 4 µg/mL
- MIC ([12]; TL2667, Concomitant (PAPM:SM = 1:1), read-out: MIC concomitant): 16 µg/mL
- MIC [12, 24]: 16 µg/mL
- MIC ([13]; ATCC19434, Concomitant (PAPM:SM = 1:1), read-out: MIC concomitant): 0.125 µg/mL
- MIC [13, 25]: 8 µg/mL
